{"source": "ChEMBL document CHEMBL5346919", "about": "“Toward anthelmintic drug candidates for toxocariasis: Challenges and recent developments” (2023)", "format_in_all_cases": "functional", "key": {"Toxocara canis [1]": {"tested_on": "Toxocara canis", "assay": "Antiparasitic activity against Toxocara canis infected in mouse assessed as worm burden reduction in muscles at 25 mg/kg,sc administered twice a day for 5 days relative to control", "design": "scale not given: the % may be the effect or the level left", "settings": "time 5 day"}, "Toxocara canis [2]": {"tested_on": "Toxocara canis", "assay": "Antiparasitic activity against Toxocara canis infected in mouse assessed as worm burden reduction in brain at 25 mg/kg,sc administered twice a day for 5 days relative to control", "design": "scale not given: the % may be the effect or the level left", "settings": "time 5 day"}, "Toxocara canis [3]": {"tested_on": "Toxocara canis", "assay": "Antiparasitic activity against Toxocara canis infected in mouse assessed as worm burden reduction in muscles at 25 mg/kg,po or sc administered twice a day for 5 days relative to control", "design": "scale not given: the % may be the effect or the level left", "settings": "time 5 day"}, "Toxocara canis [4]": {"tested_on": "Toxocara canis", "assay": "Antiparasitic activity against Toxocara canis assessed as relative mobility at 1 to 10000 uM measured after 24 hrs by", "settings": "dose 1-10000 µM, read-out: ED50 (the source's name)"}, "Toxocara vitulorum [5]": {"tested_on": "Toxocara vitulorum", "assay": "Antiparasitic activity against Toxocara vitulorum infected in assessed as decrease in number of larvae in liver at 40 mg/kg,po measured after 7 days", "settings": "168 h, time 7 day"}, "Toxocara vitulorum [6]": {"tested_on": "Toxocara vitulorum", "assay": "Antiparasitic activity against Toxocara vitulorum infected in assessed as decrease in number of larvae in lung at 40 mg/kg,po measured after 7 days", "settings": "168 h, time 7 day"}, "Toxocara canis [7]": {"tested_on": "Toxocara canis", "assay": "Antiparasitic activity against Toxocara canis assessed as larvicidal activity at 1100 uM measured after 48 hrs relative to control"}, "Toxocara canis [8]": {"tested_on": "Toxocara canis", "assay": "Antiparasitic activity against Toxocara canis assessed as larvicidal activity at 192 uM measured after 48 hrs relative to control"}, "Toxocara canis [9]": {"tested_on": "Toxocara canis", "assay": "Antiparasitic activity against Toxocara canis assessed as relative mobility"}, "Toxocara canis [10]": {"tested_on": "Toxocara canis", "assay": "Antiparasitic activity against Toxocara canis infected in mouse assessed as worm burden reduction in muscles at 350 mg/kg,sc administered twice a day relative to control", "design": "scale not given: the % may be the effect or the level left"}, "Toxocara canis [11]": {"tested_on": "Toxocara canis", "assay": "Antiparasitic activity against Toxocara canis infected in mouse assessed as worm burden reduction in brain at 100 mg/kg,po administered twice a day for 5 days relative to control", "design": "scale not given: the % may be the effect or the level left", "settings": "time 5 day"}, "Toxocara canis [12]": {"tested_on": "Toxocara canis", "assay": "Antiparasitic activity against Toxocara canis infected in mouse assessed as worm burden reduction in brain at 25 mg/kg,po or sc administered twice a day for 5 days relative to control", "design": "scale not given: the % may be the effect or the level left", "settings": "time 5 day"}, "Toxocara canis [13]": {"tested_on": "Toxocara canis", "assay": "Antiparasitic activity against Toxocara canis infected in mouse assessed as worm burden reduction in brain at 150 mg/kg,sc administered twice a day relative to control", "design": "scale not given: the % may be the effect or the level left"}, "Toxocara canis [14]": {"tested_on": "Toxocara canis", "assay": "Antiparasitic activity against Toxocara canis j2 larvae assessed as relative mobility at 18 uM measured after 48 hrs"}, "Toxocara cati [15]": {"tested_on": "Toxocara cati", "assay": "Antiparasitic activity against Toxocara cati infected in cat assessed as worm burden reduction at 25 mg/kg,po measured after 3 days", "design": "scale not given: the % may be the effect or the level left", "settings": "time 3 day"}, "Toxocara canis [16]": {"tested_on": "Toxocara canis", "assay": "Antiparasitic activity against Toxocara canis infected in dog assessed as egg burden reduction at 50 mg/kg,po measured after 3 days", "design": "scale not given: the % may be the effect or the level left", "settings": "time 3 day"}, "Toxocara cati [17]": {"tested_on": "Toxocara cati", "assay": "Antiparasitic activity against Toxocara cati infected in cat assessed as worm burden reduction at 50 mg/kg, po measured after 2 days", "design": "scale not given: the % may be the effect or the level left", "settings": "time 2 day"}}, "note": "pEC50: −log10 of the molar value.", "data": [{"compound": "COC(=O)Nc1nc2cc(Sc3ccccc3)ccc2[nH]1", "note": "[FENBENDAZOLE]", "values": [{"measurement": "Activity", "setting": "Toxocara canis [1]", "result": 55.7, "unit": "%"}, {"measurement": "Activity", "setting": "Toxocara canis [2]", "result": 44.7, "unit": "%"}, {"measurement": "Activity", "setting": "Toxocara canis [3]", "result": 89.5, "unit": "%"}]}, {"compound": "COc1ccc2c(c1OC)CN(C)CCc1cc3c(cc1C(=O)C2)OCO3", "note": "[ALLOCRYPTOPINE]", "values": [{"measurement": "pEC50", "setting": "Toxocara canis [4]", "result": 3.46}]}, {"compound": "Cc1ccc(C(C)C)c(O)c1", "note": "[THYMOL]", "values": [{"measurement": "inhibition in vivo at 40 mg/kg", "setting": "Toxocara vitulorum [5]", "result": 58.5, "unit": "%"}, {"measurement": "inhibition in vivo at 40 mg/kg", "setting": "Toxocara vitulorum [6]", "result": 66.7, "unit": "%"}]}, {"compound": "CC1(C)CCC2=C(O1)C1(CO1)c1ccccc1C2=O", "note": "(stereo not given)", "values": [{"measurement": "Activity", "setting": "Toxocara canis [7]", "result": 100, "unit": "%"}, {"measurement": "Activity", "setting": "Toxocara canis [8]", "result": 100, "unit": "%"}]}, {"compound": "O=C1C(Cl)=C(Cl)C2(CO2)c2ccccc21", "note": "(stereo not given)", "values": [{"measurement": "Activity", "setting": "Toxocara canis [7]", "result": 100, "unit": "%"}]}, {"compound": "COc1ccc(Cc2nccc3cc(OC)c(OC)cc23)cc1OC", "note": "[PAPAVERINE]", "values": [{"measurement": "pEC50", "setting": "Toxocara canis [4]", "result": 3.60}]}, {"compound": "CC1(C)CCC2=C(O1)C1(CO1)C1=C(CCCC1)C2=O", "note": "(stereo not given)", "values": [{"measurement": "Activity", "setting": "Toxocara canis [7]", "result": 100, "unit": "%"}]}, {"compound": "CC1(C)CC2=C(O1)C1(CO1)c1ccccc1C2=O", "note": "(stereo not given)", "values": [{"measurement": "Activity", "setting": "Toxocara canis [7]", "result": 100, "unit": "%"}]}, {"compound": "OCCCC1NCCc2c1[nH]c1ccccc21", "note": "(stereo not given)", "values": [{"measurement": "ED", "setting": "Toxocara canis [9]", "result": 59.9, "unit": "µM"}]}, {"compound": "CCCSc1ccc2[nH]c(NC(=O)OC)nc2c1", "note": "[ALBENDAZOLE]", "values": [{"measurement": "Activity", "setting": "Toxocara canis [1]", "result": 70, "unit": "%"}, {"measurement": "Activity", "setting": "Toxocara canis [2]", "result": 92.2, "unit": "%"}, {"measurement": "Activity", "setting": "Toxocara canis [10]", "result": 37.5, "unit": "%"}, {"measurement": "Activity", "setting": "Toxocara canis [11]", "result": 100, "unit": "%"}, {"measurement": "Activity", "setting": "Toxocara canis [12]", "result": 66.1, "unit": "%"}, {"measurement": "Activity", "setting": "Toxocara canis [13]", "result": 54.2, "unit": "%"}]}, {"compound": "CCCSc1ccc2c(c1)nc(NC(=O)OC)n2COC(C)=O", "values": [{"measurement": "Activity", "setting": "Toxocara canis [14]", "result": 30, "unit": "%"}]}, {"compound": "O=C(Nc1ccc(N=C=S)cc1Cl)c1cc(Br)cc(Br)c1O", "values": [{"measurement": "Activity", "setting": "Toxocara cati [15]", "result": 100, "unit": "%"}, {"measurement": "Activity", "setting": "Toxocara canis [16]", "result": 100, "unit": "%"}, {"measurement": "Activity", "setting": "Toxocara cati [17]", "result": 100, "unit": "%"}]}, {"compound": "COc1cc2c(cc1OC)-c1c(C)c3ccc(OC)c(OC)c3c[n+]1CC2", "note": "[DEHYDROCORYDALINE]", "values": [{"measurement": "pEC50", "setting": "Toxocara canis [4]", "result": 3.53}]}, {"compound": "C=CCOC1=CC(=O)c2ccccc2C12CO2", "note": "(stereo not given)", "values": [{"measurement": "Activity", "setting": "Toxocara canis [7]", "result": 100, "unit": "%"}]}]}
